Assay results published in patent US20140066444A1, “Method of Treating Cancer” (Exelixis, Inc., priority 2010, published 2014).

Experiments:
MET and VEGFR signaling = assay: suppression of MET and VEGFR signaling
oral bioavailability = conditions: in vivo
[1] = system: endothelial cells and tumor cells; assay: induction of apoptosis
[2] = system: pancreatic neuroendocrine tumor model; assay: murine pancreatic neuroendocrine tumor model
[3] = system: metastatic castration-resistant prostate cancer (CRPC) with bone metastases; assay: case studies: metastatic CRPC patients treated with Compound 1; assay type: in vivo, human; conditions: three metastatic CRPC patients
Description: Bone metastases are present in 90% of patients with castration-resistant prostate cancer (CRPC), causing significant morbidity and mortality.

xenograft tumor models = assay: xenograft tumor models
[4] = gravimetric vapor sorption (GVS) study; assay type: physicochemical; conditions: 25° C. and 90% humidity
Description: A gravimetric vapor sorption (GVS) study was run using a standard procedure. Samples were run on a dynamic vapor sorption analyzer (Surface Measurement Systems) running DVSCFR software. Sample sizes were typically 10 mg. A moisture adsorption desorption isotherm was performed as outlined below. The standard isotherm experiment, performed at 25° C., is a two-cycle run, starting at 40% RH, increasing humidity to 90% RH, decreasing humidity to 0% RH, increasing humidity again to 90% RH, and finally decreasing humidity to 0% RH in 10% RH intervals.

| Structure (SMILES) | MET and VEGFR signaling (MET and VEGFR signaling) | oral bioavailability (oral bioavailability) | apoptosis of endothelial cells and tumor cells [1] | overall survival [2] | tumor invasiveness and metastasis [2] | bone lesions [3] | bone pain [3] | measurable disease [3] | total serum alkaline phosphatase (tALP) levels [3] | tumor regression (xenograft tumor models) | weight gain (GVS) [4] |
| --- | --- | --- | --- | --- | --- | --- | --- | --- | --- | --- | --- |
| COc1cc2c(Oc3ccc(NC(=O)C4(C(=O)Nc5ccc(F)cc5)CC4)cc3F)ccnc2cc1OCCCN1CCOCC1 [Compound 1] | suppresses | orally bioavailable | rapidly induces apoptosis | substantially improves | significantly reduces | near complete resolution of bone lesions | marked reduction | reduction in measurable disease | marked reduction | causes tumor regression | – |
| COc1cc2c(Oc3ccc(NC(=O)C4(C(=O)Nc5ccc(F)cc5)CC4)cc3F)ccnc2cc1OCCCN1CCOCC1.O [crystalline Compound 1, N-[3-fluoro-4-({6-(methyloxy)-7-[(3-morpholin-4-ylpropyl)oxy]quinolin-4-yl}oxy)phenyl]-N′-(4-fluorophenyl)cyclopropane-1,1-dicarboxamide crystalline hydrate] | – | – | – | – | – | – | – | – | – | – | 2.5% |
